Data from the NIST ThermoML archive (doi:10.1021/je049571n).
Numbers after ± are expanded uncertainties.

Experiments:
[1] = Liquid; for mass density: 101.33 kPa
[2] = refractive index (Na D-line) (dimensionless); settings: 101.33 kPa, Liquid, Standard Abbe refractometry

| mass density ([1]; 298.2 K) [kg/m3] | Normal boiling temperature [1] [°C] | refractive index ([2]; 293.2 K) | mass density ([1]; 293.2 K) [kg/m3] | refractive index ([2]; 298.2 K) | Compound |
| --- | --- | --- | --- | --- | --- |
| 1047.22 ± 0.28 | 118.1 ± 0.2 | 1.3719 ± 0.0012 | – | – | CC(=O)O [acetic acid] |
| – | 214.1 ± 0.2 | – | 1087.74 ± 0.65 | 1.4242 ± 0.0012 | COC(=O)CCCC(=O)OC [dimethyl pentanedioate] |
